Like-named read-outs stand apart in the source and are kept apart here.
System: rabbit isolated gastric glands
Assay: Inhibition of secretagogue-stimulated C-aminopyrine uptake in rabbit isolated gastric glands (anti-secretory activity, H+/K+ ATPase)
Assay type: cell-based
Settings: 10^-4 M test compound, % inhibition of maximum response to secretagogue; for inhibition at 100 µM: Oryctolagus cuniculus
Procedure: Compounds of formula I were tested for anti-secretory activity by their ability to inhibit the effect of one or two secretagogues on isolated gastric glands.
Potential inhibitors of the highly specific proton transporting enzyme H^+ /K^+ ATPase were evaluated by a technique involving the measurement of aminopyrine accumulation in rabbit isolated gastric glands. Aminopyrine accumulates in acid-secreting cells; therefore, uptake of aminopyrine is increased by secretagogues and an inhibitor of acid secretion will reduce the response to one or more secretagogues depending upon its site of action. Compounds which reduce the response to dibutyryl cyclic adenosine monophosphate (DBcAMP) stimulation are assumed to have an intracellular site of action, and those which reduce the response to both DBcAMP and high potassium ion concentration (K^+) are thought to have an intracellular site of action at the secretory surface of the parietal cell, involving the highly specific proton-transporting enzyme, H^+ /K^+ ATPase.
The following procedure is used:
Rabbit glands are isolated from gastric mucosa from the corpus region of the stomach by a method based on one described by Berglindh T., Obrink K. J., Acta Physiol. Scand. 96, 150-159 (1976). Measurement of aminopyrine uptake is carried out using a procedure based on the method described by Berglindh T., Hellander H. F., Obrink K. J. (ibid. 97 401-414, 1976).
Compounds are tested at a concentration of 10^-4 M, for their ability to inhibit C-aminopyrine uptake in gastric glands, stimulated by DBcAMP and high K^+ respectively. Results are expressed as the % inhibition of the maximum response to the secretagogue induced by the test compound.

[1] = DBcAMP-stimulated aminopyrine uptake, read-out: % Inhibition to stimulation by: DBcAMP
[2] = high K+-stimulated aminopyrine uptake, read-out: % Inhibition to stimulation by: k+

Row | SMILES | inhibition at 100 µM [1] | inhibition at 100 µM [2] | % Inhibition to stimulation by: k+ (high K+-stimulated aminopyrine uptake) | % Inhibition to stimulation by: DBcAMP (DBcAMP-stimulated aminopyrine uptake)
1 | c1ccc2c(c1)CSc1nc3ccccc3n1C2 [8,13-Dihydrodibenzo[d,h]imidazo[2,1-b][1,3]thiazepine] | 32% | 94% |  | 
2 | [O-][S+]1Cc2ccccc2Cn2c1nc1ccccc12 (stereo not drawn) [8,13-Dihydrodibenz[d,h]imidazo[2,1-b][1,3]thiazepine-1-oxide] | 31% |  | ns | 
3 | Cc1cc2nc3n(c2cc1C)Cc1ccccc1CS3 [8,13-Dihydro-4,5-dimethyldibenzo[d,h]imidazo[2,1-b][1,3]thiazepine] |  | 80% |  | ns
